Results on 4 compounds are retold here after ChEMBL document CHEMBL4020733, “Approaches towards the development of chimeric DPP4/ACE inhibitors for treating metabolic syndrome” (Bioorg Med Chem Lett, 2017).

Data set [1] concerns the target Cytochrome P450 2C19 (Homo sapiens, UniProt P33261). The data set can be described thus: Inhibition of CYP2C19 (unknown origin) up to 10 uM. The class given is ADME.
A short description of data set [2]: AUC (0 to 24 hrs) in Wistar rat plasma at 30 mg/kg, po. The class given is ADME, organism-based. More on the design: time < 24 hr, dose 30 mg/kg, route oral.
Data set [3] has as its target T1, Angiotensin-converting enzyme (Mus musculus, UniProt P09470).
T1 sequence (P09470 whole entry): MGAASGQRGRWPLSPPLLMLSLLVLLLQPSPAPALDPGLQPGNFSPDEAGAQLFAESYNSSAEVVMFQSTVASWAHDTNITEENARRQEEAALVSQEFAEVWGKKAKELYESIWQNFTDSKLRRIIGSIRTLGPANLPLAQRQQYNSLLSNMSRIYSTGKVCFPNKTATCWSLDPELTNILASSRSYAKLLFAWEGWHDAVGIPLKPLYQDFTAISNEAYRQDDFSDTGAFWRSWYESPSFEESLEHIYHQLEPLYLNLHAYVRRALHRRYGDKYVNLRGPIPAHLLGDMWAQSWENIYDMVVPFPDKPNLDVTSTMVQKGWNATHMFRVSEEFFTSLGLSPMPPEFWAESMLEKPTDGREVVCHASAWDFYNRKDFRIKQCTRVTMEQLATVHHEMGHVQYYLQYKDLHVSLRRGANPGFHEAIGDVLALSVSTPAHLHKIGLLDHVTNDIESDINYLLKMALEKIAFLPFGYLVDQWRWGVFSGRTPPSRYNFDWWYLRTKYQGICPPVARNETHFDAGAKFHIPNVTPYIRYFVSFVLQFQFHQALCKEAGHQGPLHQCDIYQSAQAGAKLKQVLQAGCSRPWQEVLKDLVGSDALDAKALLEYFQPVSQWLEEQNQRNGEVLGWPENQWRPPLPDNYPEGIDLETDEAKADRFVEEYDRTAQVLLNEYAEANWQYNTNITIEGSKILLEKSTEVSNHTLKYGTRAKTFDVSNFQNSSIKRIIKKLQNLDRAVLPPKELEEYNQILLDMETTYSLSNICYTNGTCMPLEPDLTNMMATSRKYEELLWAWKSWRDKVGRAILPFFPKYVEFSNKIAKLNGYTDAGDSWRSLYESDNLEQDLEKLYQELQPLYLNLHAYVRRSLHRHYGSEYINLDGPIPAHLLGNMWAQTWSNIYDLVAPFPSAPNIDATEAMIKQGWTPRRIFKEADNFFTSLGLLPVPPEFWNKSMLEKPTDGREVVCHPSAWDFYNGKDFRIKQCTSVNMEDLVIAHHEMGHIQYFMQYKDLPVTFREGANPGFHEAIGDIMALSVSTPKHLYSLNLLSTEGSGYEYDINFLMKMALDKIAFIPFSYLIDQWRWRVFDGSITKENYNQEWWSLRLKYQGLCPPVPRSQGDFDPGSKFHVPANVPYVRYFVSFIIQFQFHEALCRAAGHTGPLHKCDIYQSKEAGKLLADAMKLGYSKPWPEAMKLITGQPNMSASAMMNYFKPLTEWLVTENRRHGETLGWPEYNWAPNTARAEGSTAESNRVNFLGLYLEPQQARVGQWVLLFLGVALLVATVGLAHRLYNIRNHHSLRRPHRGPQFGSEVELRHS
The data set can be described thus: Inhibition of ob/ob mouse plasma ACE.

Data set [4] concerns the target Dipeptidyl peptidase 4 (Rattus norvegicus, UniProt P14740). The data set can be described thus: Inhibition of Wistar rat plasma DPP4.
For data set [5], the target named is Dipeptidyl peptidase 4 (Mus musculus, UniProt P28843). Kind of data set: Inhibition of ob/ob mouse plasma DPP4.
Data set [6] concerns the target T2, Prolyl endopeptidase (Homo sapiens, UniProt P48147).
T2 sequence (P48147 whole entry): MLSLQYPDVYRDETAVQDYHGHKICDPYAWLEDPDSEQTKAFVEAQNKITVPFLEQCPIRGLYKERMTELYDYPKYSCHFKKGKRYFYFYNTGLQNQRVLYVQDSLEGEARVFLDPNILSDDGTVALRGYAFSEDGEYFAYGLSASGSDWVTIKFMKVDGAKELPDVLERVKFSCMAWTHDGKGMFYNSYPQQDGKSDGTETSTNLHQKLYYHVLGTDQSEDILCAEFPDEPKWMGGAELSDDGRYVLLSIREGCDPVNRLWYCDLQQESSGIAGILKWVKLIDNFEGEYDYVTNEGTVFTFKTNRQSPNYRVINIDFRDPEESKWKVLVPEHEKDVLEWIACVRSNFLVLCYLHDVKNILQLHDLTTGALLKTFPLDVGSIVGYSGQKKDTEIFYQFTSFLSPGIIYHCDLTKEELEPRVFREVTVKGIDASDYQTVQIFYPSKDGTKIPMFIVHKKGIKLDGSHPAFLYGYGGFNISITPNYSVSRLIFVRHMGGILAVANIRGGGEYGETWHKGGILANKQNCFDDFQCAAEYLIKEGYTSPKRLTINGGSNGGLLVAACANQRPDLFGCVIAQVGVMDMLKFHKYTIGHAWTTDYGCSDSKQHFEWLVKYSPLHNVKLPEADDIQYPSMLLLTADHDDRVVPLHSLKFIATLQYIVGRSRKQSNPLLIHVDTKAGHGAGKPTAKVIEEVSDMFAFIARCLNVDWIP
The data set can be described thus: Inhibition of PPCE (unknown origin).

Sequence of Dipeptidyl peptidase 4 (Mus musculus, UniProt P28843) (P28843 whole entry): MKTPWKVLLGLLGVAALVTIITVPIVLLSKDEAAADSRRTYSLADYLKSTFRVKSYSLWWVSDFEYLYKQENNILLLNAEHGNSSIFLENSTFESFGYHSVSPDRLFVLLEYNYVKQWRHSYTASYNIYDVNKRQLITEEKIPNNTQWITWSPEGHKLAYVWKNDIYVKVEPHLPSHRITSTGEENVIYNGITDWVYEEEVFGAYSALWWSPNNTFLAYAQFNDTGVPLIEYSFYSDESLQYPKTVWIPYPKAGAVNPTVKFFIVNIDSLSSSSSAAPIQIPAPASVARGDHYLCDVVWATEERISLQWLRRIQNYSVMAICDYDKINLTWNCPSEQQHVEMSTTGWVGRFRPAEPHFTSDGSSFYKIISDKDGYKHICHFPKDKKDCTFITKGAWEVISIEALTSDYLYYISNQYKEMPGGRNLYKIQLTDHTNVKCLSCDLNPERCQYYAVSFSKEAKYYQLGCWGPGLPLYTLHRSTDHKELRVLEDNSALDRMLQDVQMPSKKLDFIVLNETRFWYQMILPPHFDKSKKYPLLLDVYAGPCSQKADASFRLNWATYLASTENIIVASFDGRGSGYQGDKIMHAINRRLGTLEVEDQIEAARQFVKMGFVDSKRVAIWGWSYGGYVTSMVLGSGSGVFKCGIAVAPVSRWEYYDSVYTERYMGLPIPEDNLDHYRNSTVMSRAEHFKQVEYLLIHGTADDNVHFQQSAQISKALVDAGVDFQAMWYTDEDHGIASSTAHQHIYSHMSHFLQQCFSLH
Sequence of Cytochrome P450 2C19 (P33261 whole entry): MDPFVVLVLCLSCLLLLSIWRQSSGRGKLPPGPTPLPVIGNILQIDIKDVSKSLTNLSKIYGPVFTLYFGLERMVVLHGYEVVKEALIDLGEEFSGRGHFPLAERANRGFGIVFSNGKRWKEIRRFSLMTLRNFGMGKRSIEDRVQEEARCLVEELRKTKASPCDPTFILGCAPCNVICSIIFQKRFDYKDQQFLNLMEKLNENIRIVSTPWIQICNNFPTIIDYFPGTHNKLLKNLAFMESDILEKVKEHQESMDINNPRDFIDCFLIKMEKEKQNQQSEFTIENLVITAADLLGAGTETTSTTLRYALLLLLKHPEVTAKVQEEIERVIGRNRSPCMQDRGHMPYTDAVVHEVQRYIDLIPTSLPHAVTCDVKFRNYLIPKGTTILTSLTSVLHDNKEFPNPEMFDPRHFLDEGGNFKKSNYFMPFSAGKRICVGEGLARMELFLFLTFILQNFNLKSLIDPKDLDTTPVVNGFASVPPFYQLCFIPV
Sequence of Dipeptidyl peptidase 4 (Rattus norvegicus, UniProt P14740) (P14740 whole entry): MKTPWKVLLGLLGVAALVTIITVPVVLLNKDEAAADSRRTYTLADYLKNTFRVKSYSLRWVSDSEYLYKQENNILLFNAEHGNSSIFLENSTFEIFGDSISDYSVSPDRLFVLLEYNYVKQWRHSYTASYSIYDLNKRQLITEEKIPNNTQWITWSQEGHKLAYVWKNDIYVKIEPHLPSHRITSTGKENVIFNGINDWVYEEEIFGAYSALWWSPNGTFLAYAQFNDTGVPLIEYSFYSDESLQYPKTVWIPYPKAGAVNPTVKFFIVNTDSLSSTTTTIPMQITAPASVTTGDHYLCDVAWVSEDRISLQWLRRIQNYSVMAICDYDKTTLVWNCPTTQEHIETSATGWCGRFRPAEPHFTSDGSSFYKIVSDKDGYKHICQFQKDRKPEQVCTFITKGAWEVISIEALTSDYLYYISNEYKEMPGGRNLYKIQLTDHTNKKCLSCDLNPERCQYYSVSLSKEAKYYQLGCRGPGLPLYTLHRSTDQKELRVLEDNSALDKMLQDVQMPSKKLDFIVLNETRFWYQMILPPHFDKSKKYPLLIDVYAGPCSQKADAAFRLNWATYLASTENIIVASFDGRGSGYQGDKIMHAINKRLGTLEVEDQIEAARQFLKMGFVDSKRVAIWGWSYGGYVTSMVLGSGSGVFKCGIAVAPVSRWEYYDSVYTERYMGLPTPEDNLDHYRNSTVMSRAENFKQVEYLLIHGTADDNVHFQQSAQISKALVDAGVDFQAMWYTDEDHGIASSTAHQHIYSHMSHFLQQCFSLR

Consider `C[C@H](N[C@@H](CCc1ccccc1)C(=O)O)C(=O)N1C[C@@H](NC(=O)C[C@H](N)Cc2cc(F)c(F)cc2F)C[C@H]1C(=O)O`, for which the “inhibition (INH)” value in data set [1] is “Not Active”. The same compound gave an AUC(0-t) at 24 h in data set [2] of 610 ng·h/mL. The IC50 amounted to 58 nM in data set [3], 155 nM in data set [4] and 217 nM in data set [5].
`CCC[C@H](N[C@@H](CCc1ccccc1)C(=O)O)C(=O)N1C[C@@H](NC(=O)C[C@H](N)Cc2cc(F)c(F)cc2F)C[C@H]1C(=O)O`: the “inhibition (INH)” value in data set [1] is given as “Not Active”. This compound also had an AUC(0-t) at 24 h in data set [2] of 21500 ng·h/mL. Moreover, the IC50 in data set [3] was 2020 nM; in data set [4], 1230 nM; in data set [5] it was 2470 nM; in data set [6] it was > 100000 nM.
As for `CC[C@H](N[C@@H](CCc1ccccc1)C(=O)O)C(=O)N1C[C@@H](NC(=O)C[C@H](N)Cc2cc(F)c(F)cc2F)C[C@H]1C(=O)O`, in data set [1], the “inhibition (INH)” value is “Not Active”. For the same compound, the AUC(0-t) at 24 h in data set [2] was 2360 ng·h/mL. Besides, the half-inhibitory concentration (IC50) was 100 nM in data set [3], 319 nM in data set [4], 488 nM in data set [5] and > 100000 nM in data set [6].
As to `CCCC[C@H](N[C@@H](CCc1ccccc1)C(=O)O)C(=O)N1C[C@@H](NC(=O)C[C@H](N)Cc2cc(F)c(F)cc2F)C[C@H]1C(=O)O`, in data set [1], the “inhibition (INH)” value is listed as “Not Active”. In data set [2], this compound displayed an AUC(0-t) at 24 h of 13900 ng·h/mL. The IC50 in data set [3] was 2210 nM; in data set [4], 4170 nM; in data set [5] it was 7170 nM; in data set [6], > 100000 nM.
